Experimental data from patent publication US20190297888A1, “FUNGICIDAL COMPOUNDS AND MIXTURES FOR FUNGAL CONTROL IN CEREALS” (Dow AgroSciences LLC, priority 2016, published 2019).

Columns and labels:
[1] = test system: Puccinia striiformis (PUCCST); assay: Field assessment of Compound I and penthiopyrad on yellow rust of wheat (AUDPC % control); assay type: in vivo; conditions: AUDPC-based, 2 field trials
Text: (§1) Treatments consisting of the compound of Formula I and fungicide compound penthiopyrad were applied either using individually or as a two-way mixture of penthiopyrad with the compound of Formula I. The compound of Formula I was applied with Agnique BP-420 (50% w/w at 0.3% v/v) at 75 and 150 g ai/ha and Penthiopyrad (Vertisan) was applied at 125 and 200 g ai/ha. Commercial standards used in the studies were Fluxapyroxad (Imtrex), applied at 100 g ai/ha, and Metconazole+Fluxapyroxad (Librax), applied at 161 g ai/ha.
Fungicidal treatments containing the compound of Formula I and penthiopyrad, either individually or as a two-way mixture, were assessed against yellow rust of wheat (PUCCST) in two separate field trials. In the first trial, fungicidal treatments were applied twice at B31-32 (early curative, 2% infection at application on L3) and B37-39 (0% infection at application on L) growth stages of winter wheat (TRZAW, Fairplay variety). The treatments were part of an experimental trial designed as a randomized complete block with four replications and a plot of approximately 1×6 m. Treatments were applied at water volume of 200 L/ha, using a backpack plot sprayer (BKPCKENG, F110-015 Hardi (3) Flat fan nozzle) and pressurized at 200 kPa.
In the second trial, fungicidal treatments containing the compound of Formula I and penthiopyrad, either individually or as a two-way mixture, were applied twice at B31-32 (early curative, 5% infection on L5 at application) and B37-39 (early curative, 5% infection on L1 and L2 at application) growth stages of wheat (TRZAW, Torch variety). The treatment was part of an experimental trial designed as a randomized complete block with four replications and a plot of approximately 2×3 m. Treatments were applied at water volume of 200 L/ha, using a backpack precision plot sprayer (BKCKAIR, F110-03 Hypro (4) Flat fan nozzle) and pressurized at 300 kPa.
(§2) Disease severity (percentage of visual diseased foliage on whole plot or leaves) in both field trials was recorded following EPPO PP1/26 guideline prescriptions. Area under the disease progress curve (AUDPC) was calculated for each plot in both trials using the sets of recorded severity data. Relative AUDPC (% control based on AUDPC) was calculated as percent of the nontreated control. Final results for the control of yellow rust of wheat by the compound of Formula I, penthiopyrad and mixtures are reported as an average of the relative AUDPC calculated over all […] field trials. Statistical analysis was done according to ANOVA and Tukey's test (p=0.10).

[2] = test system: Zymoseptoria tritici (SEPTTR); assay: Field assessment of Compound I and penthiopyrad on leaf blotch of wheat (AUDPC % control); assay type: in vivo; conditions: AUDPC-based, 3 field trials
Text: as §1
Fungicidal treatments containing the compound of Formula I and penthiopyrad, either individually or as a two-way mixture, were assessed against leaf spot of wheat (SEPTTR) in three separate field trials. In the first trial, fungicidal treatments were applied at B33 (3% infection at application on L3) growth stage of winter wheat (TRZAW, Dinosor variety). The treatments were part of an experimental trial designed as a randomized complete block with four replications and a plot of approximately 1×6 m. Treatments were applied at water volume of 200 L/ha, using a backpack plot sprayer (BKPCKENG, FLATFANA nozzle) and pressurized at 200 kPa.
In the second trial, fungicidal treatments were applied twice at B32 (curative, 25% infection at application on L5) and B37-39 (5% infection at application on L3) growth stages of winter wheat (TRZAW, Consort variety). The treatments were part of an experimental trial designed as a randomized complete block with four replications and a plot of approximately 1×2 m. Treatments were applied at water volume of 200 L/ha, using a backpack plot sprayer (BKPCKAIR, Flat fan nozzle) and pressurized at 210 kPa.
In the final trial, fungicidal treatments were applied twice at B32 (protective, 15% infection at application on L6) and B37-39 (12% infection at application on L5) growth stages of winter wheat (TRZAW, Smaragd variety). The treatments were part of an experimental trial designed as a randomized complete block with four replications and a plot of approximately 2×3 m. Treatments were applied at water volume of 200 L/ha, using a backpack plot sprayer (BICYCAIR, FLATFANA nozzle) and pressurized at 220 kPa.
as §2, with “leaf spot” for “yellow rust”, “Statistical analysis was done according to ANOVA and Tukey's test (p=0.10).” left out

## N#Cc1ccc(Oc2ccc(C(F)(F)C(O)(Cn3ncnc3S)c3ccc(F)cc3F)nc2)cc1 (stereo not shown) [Compound I, 4-((6-(2-(2,4-difluorophenyl)-1,1-difluoro-2-hydroxy-3-(5-mercapto-1H-1,2,4-triazol-1-yl)propyl)pyridin-3-yl)oxy)benzonitrile]
[1]; rate 75 g ai/ha
  PUCCST % Control: 72.8%
[1]; rate 150 g ai/ha
  PUCCST % Control: 76.4%
[2]; rate 75 g ai/ha
  SEPTTR % Control: 60.6%
[2]; rate 150 g ai/ha
  SEPTTR % Control: 71.1%
